PMC9405596, “Evaluation of the Anti-Leishmania mexicana and -Trypanosoma brucei Activity and Mode of Action of 4,4′-(Arylmethylene)bis(3-methyl-1-phenyl-1H-pyrazol-5-ol)” (Biomedicines, 2022)
Read-outs that look alike come from different tables or passages of the source.

What was measured:
[1] = system: hGrx1-roGFP2 redox biosensor in bloodstream T. brucei brucei; assay: In-cell redox assay with hGrx1-roGFP2 biosensor (flow cytometry); details: compound at its IC50, 1 h; for intracellular biosensor oxidation: relative to diamide (full oxidation) and DTT (reduction)
[2] = system: recombinant roGFP2 biosensor; assay: In vitro fluorescence assay with recombinant roGFP2 biosensor; type: biochemical; details: 50 µM compound, 5 µM biosensor, 1 h
Protocol: The His-tagged recombinant form of a roGFP2 biosensor was expressed and purified from Escherichia coli (strain C41). An overnight pre-culture (LB medium + 50 µg/mL kanamycin, 220 rpm at 37 °C) of transformed cells was diluted 1:100 in fresh 2YT medium with 50 µg/mL kanamycin, and grown at 220 rpm and 37 °C until reaching an OD600 of ~0.8. At this time point, the culture was supplemented with IPTG (end concentration 1 mM) and the incubation was extended overnight at 100 rpm, 20 °C. Cells were harvested by centrifugation at 5000× g for 10 min at 4 °C and the cell pellet was resuspended in Buffer A (50 mM sodium phosphate, pH 8.0, 300 mM NaCl) at a ratio of 5 mL buffer per gram of pellet. Lysozyme (50 mg/mL) and DNAse (15 U/mL; Roche) were added to the cell homogenate and the suspension was incubated for 1 h on ice. Next, cells were sonicated for 2 min (30 s on/off pulses at an amplitude of 40%) and the lysate was centrifuged twice at 23,000× g, 4 °C, for 1 h. The clarified supernatant was filtered (0.4 µm filter) and applied to a 5 mL HisTrap column (GE Healthcare, Chicago, IL, USA) pre-equilibrated with Buffer A. The column was washed with 15 mL of Buffer A and then with 15 mL of Buffer A + 20 mM Imidazole. The recombinant protein was eluted from the column with Buffer A + 500 mM Imidazole. The elution fractions containing the biosensor (optical observation) were pooled and buffer exchanged against Buffer A using a PD-10 column (G25-sepharose, GE Healthcare). In order to remove the His-tag, the recombinant protein was digested overnight (4 °C) using 4.5 mg/mL TEV protease in Buffer A containing 5 mM DTT and 2 mM EDTA. Finally, the digested sample was applied to a 5 mL HisTrap column pre-equilibrated with Buffer A, and the flow-through containing the un-tagged biosensor was collected. The purity of the recombinant biosensor was evaluated by SDS-PAGE, and the protein concentration estimated by measuring absorbance at 280 nm (ε^280 23.290 M^−1cm^−1) in a Nanodrop DS-11 FX device. Upon purification, the biosensor was obtained in an oxidized state, as assessed via spectrofluorimetry (see below).
For the fluorescence assays, the recombinant biosensor was used at a final concentration of 5 µM and compounds at 50 µM in Buffer A with DMSO (final concentration 1%). DTT was added at 10 mM for achieving full biosensor reduction. Fluorescence spectra ([…] and emission) were recorded using a Cary Eclipse equipment. […]

[3] = system: L. mexicana promastigotes; assay: MTT viability assay against L. mexicana promastigotes; type: cell-based, Leishmania mexicana; details: for L. mexicana Promastigote SI vs. Hepatocytes: CC50 HepG2 hepatocytes/IC50 L. mexicana; for L. mexicana Promastigote SI vs. Macrophage: CC50 RAW macrophages/IC50 L. mexicana; for IC50: 48 h
Protocol: The leishmanicidal activity against promastigotes from L. mexicana was evaluated by measuring parasites’ mitochondrial activity using the MTT (Thiazolyl Blue Tetrazolium Bromide) colorimetric assay as described previously. […] The medium was renewed every third day and subcultures were prepared when parasite density reached 1 × 10^7 parasites/mL. A Neubauer chamber was used to determine parasite density.

[4] = MTT cytotoxicity assay, murine macrophages; type: cell-based; details: mouse, RAW 264.7 macrophage cells, RAW 264.7, 48 h
Protocol: (§1) Murine macrophages (cell line RAW 264.7, ATCC® TIB-71™) were grown in Dulbecco’s Modified Eagle Medium (DMEM) (Gibco, Invitrogen, Waltham, MA, USA) supplemented with 10% fetal bovine serum (FBS) (Eurobio) and 100 IU/mL penicillin + 100 µg/mL streptomycin (Gibco), at 37 °C, in an atmosphere containing 5% CO2. Human hepatocyte cell line HepG2 (ATCC® HB-8065™) was grown in MEM (Gibco, Invitrogen) supplemented with 10% FBS (Gibco, Invitrogen), 1% NEAA (Gibco, Invitrogen), and 1% L-glutamine (Gibco, Invitrogen). The medium was renewed twice a week. For both cell lines, the viability was determined using the MTT assay as described before for leishmanicidal activity assessment, with some variations. Here, 5 × 10^4 cells/well in a final volume of 100 µL were seeded into a 96-well plate, in triplicate for RAW macrophages and in duplicate for HepG2. Saponin (2.4 mg/mL) and untreated cells were used as positive control and negative control, respectively. Compounds were dissolved in DMSO to obtain different serial concentrations (1.56 to 800 µM) for RAW macrophages and 100–0.001 µM for HepG2. The final concentration of DMSO in each well was 0.5%. After exposure to compounds for 48 h and 72 h for RAW and HepG2 cells, respectively, 10 µL/well of MTT (5 mg/mL in PBS) was added, incubated at 37 °C for 2 h in darkness, and cells were pelleted via centrifugation at 4400 rpm for 10 min. The medium was removed, and 100 µL/well of DMSO was added to dissolve formazan. The absorbance at 570 and 630 nm was recorded following the same procedure as with parasites.

[5] = system: bloodstream form of T. b. brucei (strain 427); assay: Bioluminescence viability assay against bloodstream T. b. brucei expressing luciferase; details: for T. brucei SI vs. Hepatocytes: CC50 HepG2 hepatocytes/IC50 T. brucei; for T. brucei bloodstream SI vs. Macrophages: CC50 RAW macrophages/IC50 T. brucei; for activity at 10 µM: read-out: T. brucei bloodstream % Growth (10 µM), 10 µM, 24 h; for SI against T. brucei, range over both mammalian cell lines: murine macrophages and HepG2 hepatocytes; for anti-T. brucei activity in preliminary screening, in words: 10 µM
[6] = design: method as in PMID 34082794; details: ref [17]; cited from earlier work
[7] = MTT cytotoxicity assay, HepG2; type: cell-based; details: human, HepG2 cells, HepG2, 72 h, read-out: CC50 HepG2 Hepatocytes
Protocol: as §1

[8] = system: Human hepatocyte cell line HepG2; details: read-out: CC50 HepG2 Hepatocytes, ref [47]; cited from earlier work
bloodstream T. b. brucei = assay: Microscopic observation of cell motility; type: cell-based, Trypanosoma brucei brucei; details: 0.9 µM, 24 h, vs vehicle-treated parasites
[9] = Trypanosoma brucei, 24 h, read-out: T. brucei bloodstream IC50, 24 h, bioluminescence
[10] = Leishmania mexicana, read-out: L. mexicana Promastigote IC50, promastigotes, 48 h, MTT
[11] = read-out: T. brucei bloodstream IC50, 24 h, bioluminescence

Compound	intracellular biosensor oxidation [1]	biosensor oxidation vs. DMSO [1]	direct oxidation of the reduced recombinant biosensor [2]	prevention of biosensor oxidation (oxidized form) [2]	L. mexicana Promastigote SI vs. Hepatocytes [3]	L. mexicana Promastigote SI vs. Macrophage [3]	CC50 at 48 h [4]	T. brucei SI vs. Hepatocytes [5]	T. brucei bloodstream SI vs. Macrophages [5]	activity at 10 µM ([5]; Trypanosoma brucei, 24 h)	IC50 [5, 9]	CC50 at 72 h [7]	IC50 [3, 10]	melting point	further results
Cc1nn(-c2ccccc2)c(O)c1C(c1ccc(C(F)(F)F)cc1)c1c(C)nn(-c2ccccc2)c1O [Compound 2r]	56%	23%	did not induce direct oxidation	11–13%	6.1	16.4	54 ± 3 µM	2.0	5.4	≤ 50%	10 ± 3 µM	20 ± 4 µM	–	–	radical scavenging activity relative to ascorbic acid [6]: higher
Cc1nn(-c2ccccc2)c(O)c1C(c1ccc(O)c(O)c1)c1c(C)nn(-c2ccccc2)c1O [Compound 2n]	–	–	–	–	>14.3	–	70 ± 7 µM	>9.8	7	≤ 50%	10 µM	> 100 µM	7 ± 1 µM	–	IC50 [5, 11]: 10.2 ± 1.75 µM; radical scavenging activity relative to ascorbic acid [6]: higher
Cc1nn(-c2ccccc2)c(O)c1C(c1cccc(C(F)(F)F)c1)c1c(C)nn(-c2ccccc2)c1O [Compound 2w, 4,4′-[(3-trifluoromethylphenyl)methylene]bis(3-methyl-1-phenyl-1H-pyrazol-5-ol)]	63%	30%	did not induce direct oxidation	11–13%	6.5	15.2	61 ± 4 µM	2.9	6.8	≤ 50%	9 µM	26 ± 3 µM	–	–	IC50 [5, 11]: 8.9 ± 0.7 µM
CC1CS(=O)(=O)CCN1/N=C/c1ccc([N+](=O)[O-])o1 (stereo not shown) [Nifurtimox, reference compound]	–	–	–	–	–	–	> 100 µM	13	–	–	3.5 µM	–	–	–	CC50 [8]: 45 ± 1 µM; SI against T. brucei, range over both mammalian cell lines [5]: 13–28.5
Cc1nn(-c2ccccc2)c(O)c1C(c1cc(C(F)(F)F)cc(C(F)(F)F)c1)c1c(C)nn(-c2ccccc2)c1O [Compound 2x, 4,4′-{[3,5-bis(trifluoromethyl)phenyl]methylene}bis(3-methyl-1-phenyl-1H-pyrazol-5-ol)]	95%	63%	did not induce direct oxidation	11–13%	4.3	4.8	34 ± 5 µM	16	18	–	1.9 ± 0.9 µM	30 ± 2 µM	≤ 10 µM	–	IC50 ([3]; read-out: L. mexicana Promastigote IC50, promastigotes, MTT): 7 ± 2 µM; SI against T. brucei, range over both mammalian cell lines [5]: 11.6–18
Cc1nn(-c2ccccc2)c(O)c1C(c1ccc(O)cc1O)c1c(C)nn(-c2ccccc2)c1O [Compound 2y, 4,4′-[(2,4-dihydroxyphenyl)methylene]bis(3-methyl-1-phenyl-1H-pyrazol-5-ol)]	–	–	–	–	–	–	170 ± 1 µM	>111	189	–	0.9 ± 0.2 µM	> 100 µM	> 50 µM	–	cell motility by microscopic observation (bloodstream T. b. brucei): did not reveal an impairment of cell motility
Cc1nn(-c2ccccc2)c(O)c1C(c1ccccc1O)c1c(C)nn(-c2ccccc2)c1O [Compound 2a]	–	–	–	–	–	4.3	51 ± 6 µM	–	–	77 ± 5%	–	> 100 µM	12 ± 3 µM	219.5 to 220.6 °C	inhibition at 10 µM ([5]; Trypanosoma brucei, 24 h, read-out: T. brucei growth inhibition at 10 µM): 23%
COc1ccc(C(c2c(C)nn(-c3ccccc3)c2O)c2c(C)nn(-c3ccccc3)c2O)cc1O [Compound 2j]	–	–	–	–	>10	11.3	113 ± 15 µM	–	–	> 100%	–	> 100 µM	10 ± 4 µM	200 to 202 °C	anti-T. brucei activity in preliminary screening, in words [5]: inactive
COc1cccc(C(c2c(C)nn(-c3ccccc3)c2O)c2c(C)nn(-c3ccccc3)c2O)c1 [Compound 2i]	–	–	–	–	>10	23.2	232 ± 25 µM	–	–	> 100%	–	> 100 µM	10 ± 3 µM	205.7 to 207.1 °C	anti-T. brucei activity in preliminary screening, in words [5]: inactive
